Assay results published in BindingDB's records for patent US11116760 (Gilead Sciences, 2021).

The molecules below were run against T1, Integrin alpha-4/beta-7 (Homo sapiens, UniProt P13612+P26010) (assay: alpha-4 beta-7 Integrin Cell Capture Assay).
T1 sequence (P13612 whole entry): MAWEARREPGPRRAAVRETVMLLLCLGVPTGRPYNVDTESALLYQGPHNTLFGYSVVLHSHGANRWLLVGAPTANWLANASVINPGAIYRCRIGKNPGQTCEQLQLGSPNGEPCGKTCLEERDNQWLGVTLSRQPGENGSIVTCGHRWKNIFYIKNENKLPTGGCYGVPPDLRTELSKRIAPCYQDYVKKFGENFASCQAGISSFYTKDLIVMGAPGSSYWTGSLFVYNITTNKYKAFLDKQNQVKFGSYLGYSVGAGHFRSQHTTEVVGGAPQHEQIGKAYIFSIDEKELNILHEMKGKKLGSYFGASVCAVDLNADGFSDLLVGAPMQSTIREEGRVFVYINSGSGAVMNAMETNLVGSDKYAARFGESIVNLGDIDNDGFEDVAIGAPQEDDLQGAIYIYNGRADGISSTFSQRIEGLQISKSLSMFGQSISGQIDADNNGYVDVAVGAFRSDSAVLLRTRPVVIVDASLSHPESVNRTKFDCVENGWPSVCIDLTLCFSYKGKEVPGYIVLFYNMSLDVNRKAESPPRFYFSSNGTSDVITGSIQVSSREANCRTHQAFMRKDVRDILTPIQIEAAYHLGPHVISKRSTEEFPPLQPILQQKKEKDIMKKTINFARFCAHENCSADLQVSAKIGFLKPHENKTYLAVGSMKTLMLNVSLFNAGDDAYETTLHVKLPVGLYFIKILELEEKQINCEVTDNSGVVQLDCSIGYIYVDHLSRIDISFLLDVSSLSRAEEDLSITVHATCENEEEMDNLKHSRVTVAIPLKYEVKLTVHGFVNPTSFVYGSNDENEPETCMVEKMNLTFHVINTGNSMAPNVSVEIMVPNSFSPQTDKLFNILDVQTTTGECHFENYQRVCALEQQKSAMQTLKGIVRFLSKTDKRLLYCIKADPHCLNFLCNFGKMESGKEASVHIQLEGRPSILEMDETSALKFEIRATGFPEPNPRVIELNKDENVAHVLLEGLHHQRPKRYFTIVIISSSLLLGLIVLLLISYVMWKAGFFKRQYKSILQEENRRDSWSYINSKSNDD
T1 sequence (P26010 whole entry): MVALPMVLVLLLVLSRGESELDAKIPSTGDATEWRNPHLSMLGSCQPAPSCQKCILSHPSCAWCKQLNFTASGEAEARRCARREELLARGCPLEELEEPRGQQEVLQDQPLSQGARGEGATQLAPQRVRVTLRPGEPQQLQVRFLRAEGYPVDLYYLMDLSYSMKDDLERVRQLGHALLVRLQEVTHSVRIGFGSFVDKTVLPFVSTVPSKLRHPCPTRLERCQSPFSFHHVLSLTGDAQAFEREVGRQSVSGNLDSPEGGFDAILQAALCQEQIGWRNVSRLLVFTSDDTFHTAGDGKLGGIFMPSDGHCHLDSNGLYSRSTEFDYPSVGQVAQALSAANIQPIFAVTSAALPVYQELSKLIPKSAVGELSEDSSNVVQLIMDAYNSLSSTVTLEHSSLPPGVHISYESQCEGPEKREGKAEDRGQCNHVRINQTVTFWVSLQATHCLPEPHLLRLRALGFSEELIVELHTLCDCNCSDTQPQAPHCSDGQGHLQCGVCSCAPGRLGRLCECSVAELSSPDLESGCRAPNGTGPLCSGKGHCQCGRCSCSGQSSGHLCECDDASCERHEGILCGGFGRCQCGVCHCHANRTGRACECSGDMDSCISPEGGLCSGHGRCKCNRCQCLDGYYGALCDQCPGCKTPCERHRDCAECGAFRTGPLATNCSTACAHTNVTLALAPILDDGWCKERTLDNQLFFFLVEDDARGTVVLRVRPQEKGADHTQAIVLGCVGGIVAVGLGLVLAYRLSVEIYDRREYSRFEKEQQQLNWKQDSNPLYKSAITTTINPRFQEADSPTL
Experimental: The potency of inhibitors in preventing α4β7 integrin interaction with MadCAM-1 was measured by monitoring the capture of α4β7 integrin expressing cells on a recombinant MadCAM-1 extracellular domain-coated plate. 384-Well plates (Corning 3702) were coated with MadCAM-1 extracellular domain by dispensing 20 μL of MAdCAM-1 at 1.0 μg/mL per well and incubating overnight at 4° C. The plates were then washed with PBS and blocked with 3% BSA for 2 hours before being washed again.

Structure (SMILES)	EC50
O=C(N[C@@H](Cc1ccc(-c2cc(F)c(F)cc2OCC2CC2)c2ncccc12)C(=O)O)c1c(F)cccc1F [US11116760, Example 10]	21.2 nM
COc1ccn(C)c(=O)c1-c1ccc(C[C@H](NC(=O)c2c(F)cccc2F)C(=O)O)c2cccnc12 [US11116760, Example 13]	8.5 nM
O=C(N[C@@H](Cc1ccc(-c2ccc(F)c3cccnc23)c2ncccc12)C(=O)O)c1c(F)cccc1F [US11116760, Example 15]	9.3 nM
COc1cc(F)c(C(=O)N[C@@H](Cc2ccc(-c3ccc(C#N)cc3Cl)c3ncccc23)C(=O)O)c(F)c1 [US11116760, Example 21]	96.6 nM
CC[C@@H](Nc1cc(F)c(C(=O)N[C@@H](Cc2ccc(-c3c(C(F)(F)F)c4cc(N(C)C)ccc4n(C)c3=O)c3ncccc23)C(=O)O)c(F)c1)C(F)(F)F [US11116760, Example 125]	1 nM
CC[C@@H](Nc1cc(F)c(C(=O)N[C@@H](Cc2cc(F)c(-c3c(OC)cc(C)n(C)c3=O)c3ncccc23)C(=O)O)c(F)c1)C(F)(F)F [US11116760, Example 138]	0.8 nM
Cc1cc(C(F)(F)F)c(-c2ccc(C[C@H](NC(=O)c3c(F)cc(N[C@H](C4CC4)C(F)(F)F)cc3F)C(=O)O)c3cccnc23)c(=O)n1C [US11116760, Example 155]	0.3 nM
CC1(C)CN(c2cc(F)c(C(=O)N[C@@H](Cc3ccc(-c4ccc(C#N)cc4Cl)c4ncccc34)C(=O)O)c(F)c2)CCO1 [US11116760, Example 213]	28.6 nM
Cc1cc(C)nc(-c2ccc(C[C@H](NC(=O)c3c(F)cc(N4CCOC[C@@H]4C(F)(F)F)cc3F)C(=O)O)c3cccnc23)n1 [US11116760, Example 261]	4 nM
N#Cc1ccc(-c2ccc(C[C@H](NC(=O)c3c(F)cc(NC4CCOCC4)cc3F)C(=O)O)c3cccnc23)c(Cl)c1 [US11116760, Example 262]	30.6 nM
N#Cc1ccc(-c2ccc(C[C@H](NC(=O)c3c(F)cc(N4CCO[C@@H](C(F)(F)F)C4)cc3F)C(=O)O)c3cccnc23)c(Cl)c1 [US11116760, Example 265]	68.8 nM
CC(C)[C@H]1COCCN1c1cc(F)c(C(=O)N[C@@H](Cc2ccc(-c3ccc(C#N)cc3Cl)c3ncccc23)C(=O)O)c(F)c1 [US11116760, Example 292]	26.9 nM
CC[C@@H](Nc1cc(F)c(C(=O)N[C@@H](Cc2ccc(-c3nccc(C)n3)c3ncccc23)C(=O)O)c(F)c1)C(F)(F)F [US11116760, Example 294]	7.4 nM
O=C(N[C@@H](Cc1ccc(-c2nccc(C(F)(F)F)c2Cl)c2ncccc12)C(=O)O)c1c(Cl)cccc1Cl [US11116760, Example 314]	13.4 nM
C[C@@H]1CN(c2cc(F)c(C(=O)N[C@@H](Cc3ccc(-c4ccc(C#N)cc4Cl)c4ncccc34)C(=O)O)c(F)c2)CCO1 [US11116760, Example 328]	19.4 nM
N#Cc1ccc(-c2ccc(C[C@H](NC(=O)c3c(F)cc(N[C@H](C4CCOCC4)C(F)(F)F)cc3F)C(=O)O)c3cccnc23)c(Cl)c1 [US11116760, Example 338]	26.5 nM

Results, then the molecule that gave them:

EC50	Structure (SMILES)
36.7 nM	N#Cc1ccc(-c2ccc(C[C@H](NC(=O)c3c(Cl)ccc(F)c3F)C(=O)O)c3cccnc23)c(Cl)c1 [US11116760, Example 17]
60.5 nM	CC(O)c1cc(F)c(C(=O)N[C@@H](Cc2ccc(-c3ccc(C#N)cc3Cl)c3ncccc23)C(=O)O)c(F)c1 (stereo partly drawn) [US11116760, Example 33]
10.9 nM	CCOCc1cc(OC)c(-c2ccc(C[C@H](NC(=O)c3c(F)cc(N)cc3F)C(=O)O)c3cccnc23)c(OC)c1 [US11116760, Example 44]
0.4 nM	CCOCc1cc(OC)c(-c2ccc(C[C@H](NC(=O)c3c(F)cc(NS(=O)(=O)c4ccc(-c5ccnc(F)c5)cc4)cc3F)C(=O)O)c3cccnc23)c(OC)c1 [US11116760, Example 50]
1.6 nM	COc1c(-c2ccc(C[C@H](NC(=O)c3c(F)cccc3F)C(=O)O)c3cccnc23)c(=O)n(C)c2ccccc12 [US11116760, Example 67]
14 nM	Cc1ccc(C(F)(F)F)c(-c2ccc(C[C@H](NC(=O)c3c(Cl)cccc3Cl)C(=O)O)c3cccnc23)n1 [US11116760, Example 68]
5.5 nM	Nc1ccc(C(F)(F)F)c(-c2ccc(C[C@H](NC(=O)c3c(Cl)cccc3Cl)C(=O)O)c3cccnc23)n1 [US11116760, Example 72]
11.7 nM	C[C@H]1CN(c2cc(F)c(C(=O)N[C@@H](Cc3ccc(-c4ccc(C#N)cc4Cl)c4ncccc34)C(=O)O)c(F)c2)CCO1 [US11116760, Example 84]
0.4 nM	COc1ccnc(-c2ccc(C[C@H](NC(=O)c3c(F)cc(N4CCOC[C@@H]4C(F)(F)F)cc3F)C(=O)O)c3cccnc23)c1C(F)(F)F [US11116760, Example 93]
3.2 nM	Cc1cnc(-c2ccc(C[C@H](NC(=O)c3c(F)cc(N4CCOC[C@@H]4C(F)(F)F)cc3F)C(=O)O)c3cccnc23)nc1C [US11116760, Example 97]
51.7 nM	CC1(Nc2cc(F)c(C(=O)N[C@@H](Cc3ccc(-c4ccc(C#N)cc4Cl)c4ncccc34)C(=O)O)c(F)c2)COC1 [US11116760, Example 152]
88.6 nM	N#Cc1ccc(-c2ccc(C[C@H](NC(=O)c3c(F)cc(NC(=O)c4ccccc4)cc3F)C(=O)O)c3cccnc23)c(Cl)c1 [US11116760, Example 169]
81.5 nM	N#Cc1ccc(-c2ccc(C[C@H](NC(=O)c3c(F)cc(N[C@H]4CCC4(F)F)cc3F)C(=O)O)c3cccnc23)c(Cl)c1 [US11116760, Example 173]
28.6 nM	N#Cc1ccc(-c2ccc(C[C@H](NC(=O)c3c(F)cc(NC4COC4)cc3F)C(=O)O)c3cccnc23)c(Cl)c1 [US11116760, Example 214]
33.6 nM	N#Cc1ccc(-c2ccc(C[C@H](NC(=O)c3c(F)cc(N4CCOC(C(F)(F)F)C4)cc3F)C(=O)O)c3cccnc23)c(Cl)c1 (stereo partly drawn) [US11116760, Example 245]
35.2 nM	N#Cc1ccc(-c2ccc(C[C@H](NC(=O)c3c(F)cc(NC(C4CCOCC4)C(F)(F)F)cc3F)C(=O)O)c3cccnc23)c(Cl)c1 (stereo partly drawn) [US11116760, Example 247]
3.1 nM	Cc1c(C)c(C)n(C)c(=O)c1-c1ccc(C[C@H](NC(=O)c2c(F)cc(N3CCOC[C@H]3C(F)(F)F)cc2F)C(=O)O)c2cccnc12 [US11116760, Example 251]
72.2 nM	N#Cc1ccc(-c2ccc(C[C@H](NC(=O)c3ccc4[nH]ccc4c3Cl)C(=O)O)c3cccnc23)c(Cl)c1 [US11116760, Example 266]
11.9 nM	CC[C@@H](Nc1cc(F)c(C(=O)N[C@@H](Cc2ccc(-c3ncc(C)c(C)n3)c3ncccc23)C(=O)O)c(F)c1)C(F)(F)F [US11116760, Example 309]
21 nM	O=C(N[C@@H](Cc1ccc(-c2nccc(C#CC3CC3)c2C(F)(F)F)c2ncccc12)C(=O)O)c1c(Cl)cccc1Cl [US11116760, Example 330]
0.15 nM	Cc1cc2c(=O)n(-c3ccc(C[C@H](NC(=O)c4c(F)cc(N5CCOC[C@@H]5C(F)(F)F)cc4F)C(=O)O)c4cccnc34)c(=O)n(C)c2cn1 [US11116760, Example 424]
0.14 nM	Cc1nc(-c2ccc(C[C@H](NC(=O)c3c(F)cc(N4CCOC[C@@H]4C(F)(F)F)cc3Cl)C(=O)O)c3cccnc23)c(=O)n(C)c1C [US11116760, Example 454]
